Data set [1] is described as follows: Entrapment of active agent in PLGA beads with different anti-solvents, amount retained by HPLC and/or NMR. Also on record: % active agent retained in solid beads: concentration or dose not given beside the values. The following applies: for % active agent retained in solid beads: 50:50 PLGA P2191 beads. The data set is classed as physicochemical. The method, then:
The entrapment of pharmaceutically active compound was investigated to determine the effect of using different anti-solvents.
The general methodology described above was used. Leuprolide acetate dissolved in DMSO/PLGA mixture at between 1-5 mg/ml of solution. The 50:50 lactide/glycolide polymer P2191 used in Example 3 was used in this Example, at a concentration of 10% w/v.
The flow rates were as used in Example 1. On entering the cooling part of the device, the functional fluid formed frozen droplets. Desolvation of the frozen droplets caused the formation of solid beads.
Various anti-solvents were investigated to determine the effect of the anti-solvent on the amount of active agent (leuprolide acetate) retained in the beads. HPLC and/or NMR were used to determine the amount of leuprolide acetate retained.

Data set [2] can be described thus: Dissolution in warm water of particles precipitated from 10% w/v aqueous solution added dropwise to ethanol. It counts as physicochemical. The following applies: particles/precipitate formed in ethanol from 10% w/v solution in water. The method, then: It is anticipated that such droplets may be of particular use in assays, since the saccharide would be readily soluble in water or aqueous solution. Solutions of 10% w/v of mannitol and dextran in water were prepared. The solutions were then added dropwise to ethanol. The dextran solution produced amorphous particles in ethanol. […] It is anticipated that a solution comprising both mannitol and dextran may be beneficial in that dextran appears to be suitable for forming discrete particles and mannitol may well be a suitable bulking agent. Furthermore, the mannitol may give the beads a more manageable consistency. Attempts were made to make solid beads from the polyol solutions using the apparatus of FIGS. 1-4. […] It is thought that further cooling of the apparatus is required in order to freeze the droplets. This may be achieved, for example, by improving the cooling capability of the cooler. A solution of 10% w/v of mannitol in dimethyl sulphoxide (DMSO) was prepared. […] It is therefore anticipated that droplets made from this solution would freeze using the apparatus of FIGS. 1 to 4, and that solvent may be extracted from the frozen droplets using an anti-solvent, such as ethanol. As mentioned above, it is anticipated that the saccharide-based droplets may be used in assays. […]

We go through three compounds from US9656228B2, “Device and method for making solid beads” (Midatech Pharma (Wales) Limited, priority 2008, dated 2017).

In the case of `CCNC(=O)[C@@H]1CCCN1C(=O)[C@H](CCCNC(=N)N)NC(=O)[C@H](CC(C)C)NC(=O)[C@@H](CC(C)C)NC(=O)[C@H](Cc1ccc(O)cc1)NC(=O)[C@H](CO)NC(=O)[C@H](Cc1c[nH]c2ccccc12)NC(=O)[C@H](Cc1c[nH]cn1)NC(=O)[C@@H]1CCC(=O)N1` [leuprolide acetate, Leuprolide acetate], the “% active agent retained in solid beads” value came out at 63% in data set [1] (anti-solvent Ethanol and pentanol); 78% in data set [1] (anti-solvent Heptanol (batch 1)); 76% in data set [1] (anti-solvent Octanol:ethanol (80:20)); 84% in data set [1] (anti-solvent Octanol:ethanol (90:10)); 94% in data set [1] (anti-solvent Pentane); 92% in data set [1] (anti-solvent Pentanol). Further, in data set [1] (lactide/glycolide polymer as bead polymer, various C3 to C8 alcohols as anti-solvent), the “retention of the active” value is on record as 60 to 95%.

As for `OC[C@@H](O)[C@@H](O)[C@H](O)[C@H](O)CO` [mannitol], the “dissolution in warm water” value in data set [2] is “dissolved in warm water”.

With dextran, in data set [2], the “dissolution in warm water” value is “readily dissolved in warm water”.
